The record followed here is ChEMBL document CHEMBL5465560, “Selectivity Literature for EUbOPEN Chemogenomic Library” (2024).

Assay [1] addresses Serine/threonine-protein kinase PAK 6 (Homo sapiens) (UniProt Q9NQU5). Put plainly: Selectivity interaction (KinomeScan (DiscoverX)) EUB0000092b PAK6. The following applies: at 10 µM.
Assay [2] deals with T1, Serine/threonine-protein kinase LATS1 (Homo sapiens) (UniProt O95835).
T1 sequence (whole entry): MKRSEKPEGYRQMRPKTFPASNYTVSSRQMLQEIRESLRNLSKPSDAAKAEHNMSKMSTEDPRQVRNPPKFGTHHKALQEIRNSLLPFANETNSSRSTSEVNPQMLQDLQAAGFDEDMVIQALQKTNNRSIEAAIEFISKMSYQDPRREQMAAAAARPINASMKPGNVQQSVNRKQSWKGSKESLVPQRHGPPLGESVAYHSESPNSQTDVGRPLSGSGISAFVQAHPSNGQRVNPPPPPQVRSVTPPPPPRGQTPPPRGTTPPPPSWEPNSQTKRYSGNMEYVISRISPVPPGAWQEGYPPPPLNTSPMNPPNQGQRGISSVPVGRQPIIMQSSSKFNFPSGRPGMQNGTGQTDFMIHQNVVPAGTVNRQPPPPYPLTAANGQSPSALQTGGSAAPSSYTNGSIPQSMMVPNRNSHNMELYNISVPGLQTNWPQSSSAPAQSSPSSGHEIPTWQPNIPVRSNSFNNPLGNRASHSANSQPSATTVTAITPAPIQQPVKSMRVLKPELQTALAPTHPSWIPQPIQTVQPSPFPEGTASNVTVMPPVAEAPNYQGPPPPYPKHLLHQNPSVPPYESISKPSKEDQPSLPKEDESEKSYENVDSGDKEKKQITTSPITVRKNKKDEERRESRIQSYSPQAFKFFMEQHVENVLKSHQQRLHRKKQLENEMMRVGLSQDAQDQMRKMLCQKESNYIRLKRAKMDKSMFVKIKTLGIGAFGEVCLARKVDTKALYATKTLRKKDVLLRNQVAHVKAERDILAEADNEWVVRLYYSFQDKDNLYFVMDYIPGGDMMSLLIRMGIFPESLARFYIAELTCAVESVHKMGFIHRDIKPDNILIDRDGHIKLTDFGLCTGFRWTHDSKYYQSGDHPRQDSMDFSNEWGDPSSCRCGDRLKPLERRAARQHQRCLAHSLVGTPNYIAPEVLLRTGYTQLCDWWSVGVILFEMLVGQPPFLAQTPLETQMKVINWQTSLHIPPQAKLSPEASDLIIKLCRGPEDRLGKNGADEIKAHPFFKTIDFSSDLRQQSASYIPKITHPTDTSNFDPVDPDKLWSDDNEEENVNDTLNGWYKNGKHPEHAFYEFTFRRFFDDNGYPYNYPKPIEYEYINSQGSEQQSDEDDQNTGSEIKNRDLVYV
Put plainly: Selectivity interaction (KinomeScan (DiscoverX)) EUB0000655a LATS1. The following applies: at 10 µM.

Assay [3] has as its target Tyrosine-protein kinase Lyn (Homo sapiens, UniProt P07948). Put plainly: Selectivity interaction (KinomeScan (DiscoverX)) EUB0000655a LYN. The following applies: at 10 µM.
In assay [4] the target is T2, Cyclin-dependent kinase 11A (Homo sapiens) (UniProt Q9UQ88).
T2 sequence (whole entry): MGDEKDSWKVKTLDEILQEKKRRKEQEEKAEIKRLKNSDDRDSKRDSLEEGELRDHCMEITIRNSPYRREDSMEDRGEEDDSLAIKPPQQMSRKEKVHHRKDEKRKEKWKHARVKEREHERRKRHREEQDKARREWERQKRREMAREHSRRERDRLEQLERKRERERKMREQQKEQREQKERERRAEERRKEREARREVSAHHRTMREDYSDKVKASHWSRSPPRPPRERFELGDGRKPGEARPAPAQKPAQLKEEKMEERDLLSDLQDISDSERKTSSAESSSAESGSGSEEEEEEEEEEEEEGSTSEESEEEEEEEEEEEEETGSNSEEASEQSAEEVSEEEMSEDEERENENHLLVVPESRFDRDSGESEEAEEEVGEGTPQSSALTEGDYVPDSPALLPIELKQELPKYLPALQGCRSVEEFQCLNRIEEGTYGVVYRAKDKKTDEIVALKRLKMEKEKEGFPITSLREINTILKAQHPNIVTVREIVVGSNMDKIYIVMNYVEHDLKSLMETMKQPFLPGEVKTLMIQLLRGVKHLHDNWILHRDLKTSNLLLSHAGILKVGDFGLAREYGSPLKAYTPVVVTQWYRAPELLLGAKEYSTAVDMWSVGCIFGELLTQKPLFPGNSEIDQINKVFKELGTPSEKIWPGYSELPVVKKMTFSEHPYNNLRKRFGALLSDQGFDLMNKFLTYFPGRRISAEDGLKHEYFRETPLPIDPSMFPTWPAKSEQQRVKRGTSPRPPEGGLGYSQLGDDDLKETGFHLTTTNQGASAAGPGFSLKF
Put plainly: Selectivity interaction (KinomeScan (DiscoverX)) EUB0000045b CDK11A. The following applies: at 10 µM.

Assay [5] addresses Tyrosine-protein kinase Fes/Fps (Homo sapiens) (UniProt P07332). Put plainly: Selectivity interaction (KinomeScan (DiscoverX)) EUB0000607a FES. The following applies: at 10 µM.
In assay [6] the target is T3, Phosphatidylinositol 5-phosphate 4-kinase type-2 gamma (Homo sapiens) (UniProt Q8TBX8).
T3 sequence (whole entry): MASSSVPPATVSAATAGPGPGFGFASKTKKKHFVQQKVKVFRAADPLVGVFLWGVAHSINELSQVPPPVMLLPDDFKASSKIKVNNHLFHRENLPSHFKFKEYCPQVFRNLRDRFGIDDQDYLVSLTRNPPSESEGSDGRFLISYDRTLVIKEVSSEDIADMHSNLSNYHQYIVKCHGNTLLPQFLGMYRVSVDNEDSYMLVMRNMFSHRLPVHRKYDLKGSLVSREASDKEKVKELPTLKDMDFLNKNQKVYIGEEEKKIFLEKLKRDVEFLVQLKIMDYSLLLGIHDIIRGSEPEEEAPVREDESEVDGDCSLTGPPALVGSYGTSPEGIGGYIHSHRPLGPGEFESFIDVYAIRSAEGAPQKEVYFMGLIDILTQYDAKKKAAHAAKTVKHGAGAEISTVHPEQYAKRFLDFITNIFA
Put plainly: Selectivity interaction (KinomeScan (DiscoverX)) EUB0000607a PIP4K2C. The following applies: at 10 µM.

Assay [7] deals with Cell division control protein 42 homolog (Homo sapiens) (UniProt P60953). Put plainly: Selectivity interaction (Kinase panel (Invitrogen)) EUB0000639a CDC42. Particulars: at 200 nM.
Assay [8] deals with Casein kinase I isoform gamma-1 (Homo sapiens) (UniProt Q9HCP0). Put plainly: Selectivity interaction (KinomeScan (DiscoverX)) EUB0000595a CSNK1G1. The following applies: at 10 µM.
Assay [9] deals with Receptor tyrosine-protein kinase erbB-3 (Homo sapiens) (UniProt P21860). Put plainly: Selectivity interaction (KinomeScan (DiscoverX)) EUB0001619a ERBB3. The following applies: at 1 µM.
Assay [10] has as its target 1-phosphatidylinositol 3-phosphate 5-kinase (Homo sapiens) (UniProt Q9Y2I7). Put plainly: Selectivity interaction (ActivX KiNativ screen (ex vivo kinase selectivity in human PBMCs)) EUB0001619a PIKFYVE. The following applies: PBMC, at 1 µM. Type of assay: cell-based.
The target of assay [11] is MAP kinase-interacting serine/threonine-protein kinase 2 (Homo sapiens, UniProt Q9HBH9). Put plainly: Selectivity interaction (KinomeScan (DiscoverX)) EUB0001619a MKNK2. Particulars: at 1 µM.
Chain of MAP kinase-interacting serine/threonine-protein kinase 2 (Q9HBH9 whole entry, looked up): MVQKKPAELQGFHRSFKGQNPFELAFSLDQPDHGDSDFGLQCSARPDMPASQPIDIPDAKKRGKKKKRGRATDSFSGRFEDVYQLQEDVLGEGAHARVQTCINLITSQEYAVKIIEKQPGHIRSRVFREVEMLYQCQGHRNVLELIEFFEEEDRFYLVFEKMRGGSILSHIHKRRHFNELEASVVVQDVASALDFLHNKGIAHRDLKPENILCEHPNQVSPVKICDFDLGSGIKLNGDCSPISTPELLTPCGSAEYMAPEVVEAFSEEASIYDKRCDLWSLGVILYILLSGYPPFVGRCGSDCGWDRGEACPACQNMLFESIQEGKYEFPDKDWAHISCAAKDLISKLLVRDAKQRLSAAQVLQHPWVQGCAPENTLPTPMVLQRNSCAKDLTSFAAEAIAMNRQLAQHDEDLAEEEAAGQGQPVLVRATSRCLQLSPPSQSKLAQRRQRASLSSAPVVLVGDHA

Chain of Tyrosine-protein kinase Fes/Fps (Homo sapiens) (P07332 whole entry): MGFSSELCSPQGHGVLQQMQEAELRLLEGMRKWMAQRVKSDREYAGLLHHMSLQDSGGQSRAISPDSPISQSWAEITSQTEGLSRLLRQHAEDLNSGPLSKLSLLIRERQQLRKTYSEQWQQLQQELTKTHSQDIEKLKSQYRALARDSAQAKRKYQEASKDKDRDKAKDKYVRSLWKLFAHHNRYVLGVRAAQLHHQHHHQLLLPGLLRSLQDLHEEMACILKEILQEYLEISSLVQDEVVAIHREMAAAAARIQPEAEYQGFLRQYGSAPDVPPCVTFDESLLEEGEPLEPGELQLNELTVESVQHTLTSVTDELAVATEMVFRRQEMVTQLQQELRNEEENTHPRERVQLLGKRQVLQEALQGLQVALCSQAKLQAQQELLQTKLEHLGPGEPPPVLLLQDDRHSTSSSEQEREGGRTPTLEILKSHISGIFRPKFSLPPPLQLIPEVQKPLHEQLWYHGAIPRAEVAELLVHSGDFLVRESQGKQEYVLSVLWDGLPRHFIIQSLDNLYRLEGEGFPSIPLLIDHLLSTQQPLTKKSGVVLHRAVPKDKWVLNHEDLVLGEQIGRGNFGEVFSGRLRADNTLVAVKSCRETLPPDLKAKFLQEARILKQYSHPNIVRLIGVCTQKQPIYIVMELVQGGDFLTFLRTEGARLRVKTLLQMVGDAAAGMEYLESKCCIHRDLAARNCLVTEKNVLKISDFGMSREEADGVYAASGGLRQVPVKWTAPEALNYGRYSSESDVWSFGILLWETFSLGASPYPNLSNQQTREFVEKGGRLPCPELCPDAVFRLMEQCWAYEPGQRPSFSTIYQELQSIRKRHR
Chain of Casein kinase I isoform gamma-1 (Homo sapiens) (Q9HCP0 whole entry, looked up, canonical isoform): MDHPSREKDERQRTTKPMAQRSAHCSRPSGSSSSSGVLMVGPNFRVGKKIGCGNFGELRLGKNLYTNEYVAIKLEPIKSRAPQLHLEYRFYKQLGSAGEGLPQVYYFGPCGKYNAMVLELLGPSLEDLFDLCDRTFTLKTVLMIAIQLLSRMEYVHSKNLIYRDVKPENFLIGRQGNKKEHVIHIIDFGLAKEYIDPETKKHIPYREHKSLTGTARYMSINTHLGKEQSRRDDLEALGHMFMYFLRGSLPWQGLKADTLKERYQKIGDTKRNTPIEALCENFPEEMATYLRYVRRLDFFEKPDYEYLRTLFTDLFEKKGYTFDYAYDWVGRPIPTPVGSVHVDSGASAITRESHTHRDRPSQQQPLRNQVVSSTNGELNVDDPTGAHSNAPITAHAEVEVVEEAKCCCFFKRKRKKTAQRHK
Chain of Tyrosine-protein kinase Lyn (P07948 2-512 limits assumed): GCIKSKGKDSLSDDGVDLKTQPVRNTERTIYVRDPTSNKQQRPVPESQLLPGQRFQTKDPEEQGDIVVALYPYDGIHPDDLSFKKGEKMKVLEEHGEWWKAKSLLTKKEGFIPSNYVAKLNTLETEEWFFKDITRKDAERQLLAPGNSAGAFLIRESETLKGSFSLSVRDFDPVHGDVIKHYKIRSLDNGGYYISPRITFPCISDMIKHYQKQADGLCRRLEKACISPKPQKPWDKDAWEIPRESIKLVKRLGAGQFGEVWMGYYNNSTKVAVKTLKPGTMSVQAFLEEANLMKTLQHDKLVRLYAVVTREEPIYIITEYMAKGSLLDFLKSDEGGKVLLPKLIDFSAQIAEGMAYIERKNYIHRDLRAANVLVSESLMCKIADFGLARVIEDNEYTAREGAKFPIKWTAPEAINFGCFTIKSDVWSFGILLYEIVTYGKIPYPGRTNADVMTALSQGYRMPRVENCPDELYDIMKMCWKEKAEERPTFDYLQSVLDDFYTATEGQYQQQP
Chain of 1-phosphatidylinositol 3-phosphate 5-kinase (Homo sapiens) (Q9Y2I7 whole entry): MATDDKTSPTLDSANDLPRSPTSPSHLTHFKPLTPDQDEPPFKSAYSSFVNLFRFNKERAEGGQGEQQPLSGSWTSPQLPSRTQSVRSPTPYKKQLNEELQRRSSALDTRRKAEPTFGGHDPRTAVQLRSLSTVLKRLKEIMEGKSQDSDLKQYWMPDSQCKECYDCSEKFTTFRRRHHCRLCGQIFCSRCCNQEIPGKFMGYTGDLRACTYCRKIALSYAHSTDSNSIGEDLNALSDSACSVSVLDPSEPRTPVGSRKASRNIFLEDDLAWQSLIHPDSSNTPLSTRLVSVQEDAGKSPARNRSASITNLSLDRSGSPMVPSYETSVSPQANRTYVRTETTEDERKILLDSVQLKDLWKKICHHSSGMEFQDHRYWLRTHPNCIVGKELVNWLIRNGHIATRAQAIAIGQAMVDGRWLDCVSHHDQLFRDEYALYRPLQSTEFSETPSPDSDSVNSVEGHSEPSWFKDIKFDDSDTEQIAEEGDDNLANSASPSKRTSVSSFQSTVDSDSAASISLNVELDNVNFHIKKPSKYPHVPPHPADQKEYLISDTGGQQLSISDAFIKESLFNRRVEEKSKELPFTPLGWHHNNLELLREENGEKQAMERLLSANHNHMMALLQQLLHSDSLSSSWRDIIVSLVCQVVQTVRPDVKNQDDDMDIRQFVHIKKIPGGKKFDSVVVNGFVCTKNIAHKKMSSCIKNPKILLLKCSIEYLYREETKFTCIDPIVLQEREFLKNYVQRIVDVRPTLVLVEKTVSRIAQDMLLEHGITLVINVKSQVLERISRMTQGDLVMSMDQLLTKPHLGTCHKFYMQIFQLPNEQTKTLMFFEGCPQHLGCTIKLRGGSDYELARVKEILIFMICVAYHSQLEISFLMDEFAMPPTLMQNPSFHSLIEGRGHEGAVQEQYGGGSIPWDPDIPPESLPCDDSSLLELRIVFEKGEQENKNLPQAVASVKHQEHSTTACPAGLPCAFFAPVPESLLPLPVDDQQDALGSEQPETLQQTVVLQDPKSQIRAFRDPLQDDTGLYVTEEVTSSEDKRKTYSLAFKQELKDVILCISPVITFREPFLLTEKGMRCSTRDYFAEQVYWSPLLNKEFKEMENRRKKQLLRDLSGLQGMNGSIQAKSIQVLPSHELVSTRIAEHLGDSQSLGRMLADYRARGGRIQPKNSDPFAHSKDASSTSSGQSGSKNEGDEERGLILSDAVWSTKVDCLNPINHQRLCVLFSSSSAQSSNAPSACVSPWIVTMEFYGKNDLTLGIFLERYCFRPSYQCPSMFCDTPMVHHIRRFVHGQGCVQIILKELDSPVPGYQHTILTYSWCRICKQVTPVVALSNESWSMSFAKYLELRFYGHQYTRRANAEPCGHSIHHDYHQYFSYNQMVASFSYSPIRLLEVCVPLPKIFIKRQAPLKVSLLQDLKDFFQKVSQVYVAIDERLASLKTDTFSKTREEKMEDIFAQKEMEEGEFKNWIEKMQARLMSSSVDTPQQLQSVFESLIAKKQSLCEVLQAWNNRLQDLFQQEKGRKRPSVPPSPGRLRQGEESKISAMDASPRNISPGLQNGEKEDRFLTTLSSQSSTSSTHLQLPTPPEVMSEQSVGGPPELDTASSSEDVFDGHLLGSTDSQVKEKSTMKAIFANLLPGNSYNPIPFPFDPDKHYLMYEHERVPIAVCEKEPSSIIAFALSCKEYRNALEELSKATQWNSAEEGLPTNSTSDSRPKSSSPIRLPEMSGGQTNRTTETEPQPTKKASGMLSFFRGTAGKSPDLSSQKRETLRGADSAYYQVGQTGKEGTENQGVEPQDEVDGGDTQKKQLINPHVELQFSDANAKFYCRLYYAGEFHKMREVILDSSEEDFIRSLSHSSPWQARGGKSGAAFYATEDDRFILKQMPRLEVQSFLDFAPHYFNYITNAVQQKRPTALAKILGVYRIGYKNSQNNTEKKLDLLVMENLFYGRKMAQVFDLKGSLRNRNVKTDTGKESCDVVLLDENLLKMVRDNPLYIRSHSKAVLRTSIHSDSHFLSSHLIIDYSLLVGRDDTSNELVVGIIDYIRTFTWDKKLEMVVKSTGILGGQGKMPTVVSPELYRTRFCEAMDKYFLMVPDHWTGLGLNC
Chain of Serine/threonine-protein kinase PAK 6 (Homo sapiens) (Q9NQU5 whole entry, looked up): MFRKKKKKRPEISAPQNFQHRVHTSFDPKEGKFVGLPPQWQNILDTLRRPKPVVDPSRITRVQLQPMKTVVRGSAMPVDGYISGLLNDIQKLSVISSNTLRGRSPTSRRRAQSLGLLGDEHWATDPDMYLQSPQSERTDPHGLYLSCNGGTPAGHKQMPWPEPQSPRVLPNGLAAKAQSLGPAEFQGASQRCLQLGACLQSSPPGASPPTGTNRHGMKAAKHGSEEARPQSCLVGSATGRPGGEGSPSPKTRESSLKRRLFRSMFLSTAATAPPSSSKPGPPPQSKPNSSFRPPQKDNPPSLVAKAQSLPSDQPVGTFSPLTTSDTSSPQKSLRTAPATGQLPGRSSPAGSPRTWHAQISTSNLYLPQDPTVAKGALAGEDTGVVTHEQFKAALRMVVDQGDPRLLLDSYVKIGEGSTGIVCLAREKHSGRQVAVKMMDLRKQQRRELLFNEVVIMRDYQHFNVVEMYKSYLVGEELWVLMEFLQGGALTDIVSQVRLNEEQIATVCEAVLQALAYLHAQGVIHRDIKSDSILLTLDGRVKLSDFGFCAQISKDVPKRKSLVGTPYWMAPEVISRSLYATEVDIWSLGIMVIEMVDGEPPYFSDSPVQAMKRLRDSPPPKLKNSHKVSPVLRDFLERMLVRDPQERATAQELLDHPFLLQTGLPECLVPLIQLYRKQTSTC

`CCC(=O)N1CCN(c2ccc(-n3c(=O)ccc4cnc5ccc(-c6cnc7ccccc7c6)cc5c43)cc2C(F)(F)F)CC1` returned a % of control in assay [1] of 87%.

As for `CN(C)CCOc1ccc(-c2nc(-c3ccncc3)c(-c3ccc4c(c3)CC/C4=N\O)[nH]2)cc1`, the figures for the % of control in assay [2] and in assay [3] were 87% and 86%, respectively.

As to `C=CC(=O)Nc1cc(-n2c(=O)ccc3cnc4ccc(-c5ccc(NS(C)(=O)=O)cc5)cc4c32)ccc1C`, the % of control in assay [4] is 100%.

With `CNC(=O)Nc1ccc(-c2nc(N3CC4CCC(C3)O4)c3cnn(C4CCC5(CC4)OCCO5)c3n2)cc1`, the % of control in assay [5] and in [6] was 100% each time.

`CC[C@@H]1[C@H](F)C(=O)N[C@@H]1COc1nccc2cc(C(N)=O)c(OC)cc12` [ZIMLOVISERTIB] registered a % of inhibition in [7] of 13.7%.

In assay [8], `COCC(=O)NC/C=C/c1ccc2ncnc(Nc3ccc(Oc4ccc(C)nc4)c(C)c3)c2c1` [CP-724714] showed a % of control of 100%.

As for `N#Cc1cccc(-c2c[nH]c3ncnc(N4CCOCC4)c23)c1`, the % of control in assay [9] was found to be 51%; in assay [11], 90%. Moreover, the % of inhibition in assay [10] is 22%.
